Test results reported in ChEMBL document CHEMBL1152991, “Tetracycline resistance in Ureaplasma spp. and Mycoplasma hominis: prevalence in Bordeaux, France, from 1999 to 2002 and description of two tet(M)-positive isolates of M. hominis susceptible to tetracyclines” (2008).
Converted amounts (≈) assume the structure as drawn.

Key:
Assay type in all cases: functional
[1] = tested on: Metamycoplasma hominis; experiment: Antimicrobial activity against tetracycline-susceptible Mycoplasma hominis isolate 3430 expressing tet(M) gene after 10 passages of drug treatment
[2] = tested on: Metamycoplasma hominis; experiment: Antimicrobial activity against tetracycline-susceptible Mycoplasma hominis isolate 3430 expressing tet(M) gene after 3 passages of drug treatment
[3] = tested on: Metamycoplasma hominis; experiment: Antimicrobial activity against tetracycline-susceptible Mycoplasma hominis isolate 3425 expressing tet(M) gene after 20 passages of drug treatment
[4] = tested on: Ureaplasma; experiment: Antimicrobial activity against tetracycline-resistant Ureaplasma sp. isolate overexpressing tet(M) gene
[5] = tested on: Metamycoplasma hominis; experiment: Antimicrobial activity against tetracycline-resistant Mycoplasma hominis isolate overexpressing tet(M) gene

Row | Structure (SMILES) | MIC [1] | MIC [2] | MIC [3] | MIC [4] | MIC [5]
1 | C[C@H]1c2cccc(O)c2C(=O)C2=C(O)[C@]3(O)C(=O)C(C(N)=O)=C(O)[C@@H](N(C)C)[C@@H]3[C@@H](O)[C@@H]21.O [DOXYCYCLINE] | 32 µg/mL | 0.12 µg/mL | 0.12 µg/mL | > 32 µg/mL | 32 µg/mL
2 | CN(C)c1ccc(O)c2c1C[C@H]1C[C@H]3[C@H](N(C)C)C(O)=C(C(N)=O)C(=O)[C@@]3(O)C(O)=C1C2=O [MINOCYCLINE] |  |  |  | > 32 µg/mL | 32 µg/mL (≈ 69.9 µM)
3 | CN(C)[C@@H]1C(O)=C(C(N)=O)C(=O)[C@@]2(O)C(O)=C3C(=O)c4c(O)cccc4[C@@](C)(O)[C@H]3C[C@@H]12 [TETRACYCLINE] |  |  |  | > 32 µg/mL | 32 µg/mL (≈ 72 µM)
